Laboratory results as given in patent US5663186A, “Treatment of atherosclerosis with angiotensin II receptor blocking imidazoles” (Merck & Co., Inc., priority 1995, dated 1997).

Tested on: patients with mild to moderate hypertension
Experiment: Clinical study: HDL cholesterol
Type: in vivo
Protocol: The total, HDL, LDL and VLDL cholesterol levels were measured using the procedures described below:
High Density Lipoprotein Cholesterol
The high density lipoprotein (HDL) cholesterol was measured by analyzing a 2.0 mL volume of non-hemolyzed serum or EDTA plasma(heparinized plasma is not recommended), which has been separated from the cells within 30 minutes of collection. A fasting specimen of at least 12 hours is required for accurate interpretation. In most persons, the plasma cholesterol level is affected very little by a recent meal. However, in some persons an increase of up to 100 mg/dL may be induced by a recent meal. The level of cholesterol in plasma is slightly lower than serum (approximately 3%) due to the fact that the liquid EDTA dilutes the plasma slightly and it somotically draws water out of the erythrocytes.
The method used for in this procedure utilizes the precipitating properties of phosphotungstate. Addition of the HDL precipitating reagent lowers the pH of the sample to the isoelectric point for the LDL and VLDL. LDL and VLDL molecules at pH 5.7 have overall electrical neutrality.
Phosphotungstate then selectively forms insoluble ligand complexes with LDL and VLDL. Differences in ionic strength forcefully precipitate these complexes. Centrifugation removes them, leaving the HDL fraction in the supernatant. The resulting supernatant cholesterol (HDL) is then assayed for cholesterol. Cholesterol esters in the sample are hydrolyzed by cholesterol esterase to cholesterol and free fatty acids. The cholesterol produced in the reaction plus the free cholesterol present in the sample, are oxidized by cholesterol oxidase to form cholesten-3-one and hydrogen peroxide. Peroxidase catalyzes the hydrogen peroxide oxidation and 4-aminoantipyrine (4-AAP) and phenol with subsequent coupling to 3,4-dichlorophenol.
The end product is a quinoneimine dye which is read at a primary wavelength of 520 nm. The color formation is proportional to the concentration of cholesterol present. This absorbance value is then compared to the absorbance by a known calibrator. The result is then printed out directly in mg/dL.

CCCCc1nc(Cl)c(CO)n1Cc1ccc(-c2ccccc2-c2nnn[nH]2)cc1.[K] [Losartan, 2-n-butyl-4-chloro-1-[(2'-(tetrazol-5-yl)-1,1'-biphenyl-4-yl)-methyl]-1H-imidazole-5-methanol potassium salt]
HDL CHOLESTEROL, TREATMENT MEAN (LOS 50, week 12, N 107): 52.1 mg/dL
HDL CHOLESTEROL, CHANGE MEAN (LOS 50, week 12, N 107, change from baseline 52.5): -0.4 mg/dL
HDL CHOLESTEROL, TREATMENT MEAN (LOS 50/100, week 12, N 106): 52.3 mg/dL
HDL CHOLESTEROL, CHANGE MEAN (LOS 50/100, week 12, N 106, change from baseline 52.9): -0.5 mg/dL
